US10011555B2, “Methods of treating Parkinson's disease” (University of Macau, priority 2013, dated 2018)

How the values were obtained:
[1] = test system: primary cerebellar granule neurons (CGNs); experiment: MPP+-induced primary CGNs damage, cell viability by MTT; type: cell-based, Sprague-Dawley rats; conditions: pre-treated 6 μM to 50 μM for 2 hours, then 150 μM MPP+ for 36 hours
Description: Primary cerebellar granule neurons (CGNs) were prepared from 8 days old Sprague-Dawley rats, as described in a previous publication (Du, Bales et al. 1997). CGNs cultured in vitro for 7 days were pre-treated with serial concentrations of compounds 1-5 from 6 μM to 50 μM respectively for 2 hours, vehicle group was incubated with 0.1% DMSO. The cells were then exposed to 150 μM MPP^+ for 36 hours. For assessment of the cell viability, 15 μl of 5 mg/ml MTT solution was added to each well containing cell in 100 μl of medium, and the plates were incubated for 4 hours in a humidified incubator at 37° C. After incubation, 100 μl of absolute DMSO was added and incubated for 10 min. Absorbance at 570 nm of each well was measured with a microplate reader.

[2] = test system: PC12 cells; experiment: 6-OHDA-induced PC12 cell damage and cytotoxicity on PC12 cells, cell viability by MTT; type: cell-based, Rat
Description: Rat pheochromocytoma cells (PC12) cells were seeded in c100 cm dishes at a density of 1.5˜2×10^6 cells/dish. After culturing in a medium with a low serum level (F-12K medium with 0.5% FBS) for 24 hours, the cells were pretreated with serial concentrations of compound 1 from 6 μM to 50 μM for 12 hours. The cells were then exposed to 1 mM 6-OHDA for 2 hours. Cell viability of cells was assessed similarly as described in Example 5.

[3] = test system: zebrafish larvae; experiment: MPTP-induced reduction of total distance traveled of zebrafish larvae; type: in vivo; conditions: 3 dpf larvae co-treated with 200 μM MPTP for 4 days
Description: The 3 dpf zebrafish larvae were co-treated with 200 μM MPTP and various concentrations of compound 1 for 4 days. At 7 dpf, the total distance the larvae traveled was recorded using a 96-well plate (with 1 fish/well and 12 larvae per group) filled with 200 μl embryo medium. Larvae were allowed to accommodate in the system for an hour before data acquisition. The swimming pattern of each larva was recorded for 10 min in 3 times, with each record session separated by 10 min. The total distance traveled was estimated as the distance (in mm) that the larva had moved during one session (10 min).

[4] = test system: MPTP-injected mice; experiment: Behavioral testing (pole, rotarod, footprint) in MPTP-injected mice; type: in vivo, C57BL/6J mice; conditions: 5, 10 and 20 mg/kg i.g., 7 days, MPTP 20 mg/kg i.p. x4
Description: Adult male C57BL/6J mice (8-10 weeks of age, 18-22 g) were used in this study. The animals were maintained in 12/12 h light/dark cycle and allowed access to food and water ad libitum. They were allowed to acclimate for 7 days before treatment. […] Then the mice were injected intraperitoneally (i.p.) with 20 mg/kg MPTP hydrochloride (Sigma Aldrich, St. Louis, Mo.), at 2 h internal for total 4 injections. Normal control group were received saline (0.1 mL/10 g) by i.p. One hour prior each MPTP injection, compound 1 (5, 10 and 20 mg/kg), rasagiline (1 mg/kg) and equal volume of vehicle (olive oil, 0.1 mL/10 g) were administrated by i.g. Then, compound 1, rasagiline or vehicle was given by i.g. once per day for total 7 days (day 1-7). Each of six groups was comprised of 10 mice. […] All the tests were done between 9 am and 2 pm under normal animal room lighting. The pole test was performed to detect impairment of limb movement. A table tennis ball (5 cm diameter) was equipped on the top of a vertical pole (55 cm length and 1 cm diameter). The pole was wrapped with a double layer of gauze to avoid slipping. The animal was placed head upward on the table tennis ball. […] The system logs the fall as the end of the experiment for that mouse, and the total time on the rotarod was recorded. […] The average retention time on the rod was calculated. […] Their footsteps were recorded on a white absorbing paper.

[5] = test system: TH-positive dopaminergic neurons in the SNpc; experiment: TH immunohistochemistry of SNpc in MPTP-injected mice; type: in vivo, C57BL/6J mice
Description: Adult male C57BL/6J mice (8-10 weeks of age, 18-22 g) were used in this study. The animals were maintained in 12/12 h light/dark cycle and allowed access to food and water ad libitum. They were allowed to acclimate for 7 days before treatment. […] Then the mice were injected intraperitoneally (i.p.) with 20 mg/kg MPTP hydrochloride (Sigma Aldrich, St. Louis, Mo.), at 2 h internal for total 4 injections. Normal control group were received saline (0.1 mL/10 g) by i.p. One hour prior each MPTP injection, compound 1 (5, 10 and 20 mg/kg), rasagiline (1 mg/kg) and equal volume of vehicle (olive oil, 0.1 mL/10 g) were administrated by i.g. Then, compound 1, rasagiline or vehicle was given by i.g. once per day for total 7 days (day 1-7). Each of six groups was comprised of 10 mice. Mice were sacrificed for tissue preparation on the day 9 as described in FIG. 6. Mice in each group were anesthetized and perfused intracardially with 0.9% sodium chloride containing heparin, and then fixed with 4% paraformaldehyde (PFA). […] The results were analyzed by counting the numbers of TH-positive cells at ×10 magnifications on a stereomicroscope (BX51, Olympus Corp. Japan). TH-positive cells in 8 position-matched sections of each mouse were counted manually by operator who was blinded to the drug treatment. […]

[6] = test system: zebrafish dopaminergic neurons; experiment: MPTP-induced dopaminergic neuron loss in zebrafish, whole-mount TH immunostaining; type: in vivo; conditions: co-treatment with 200 μM MPTP for 48 hours
Description: Zebrafish embryo was dechorinated at 1 day post fertilization (dpf) and was cultured under co-treatment of 200 μM MPTP and various concentrations of compound 1 for 48 hours. Afterwards, zebrafish was fixed in 4% paraformaldehyde in PBS for 5 hours, rinsed and stored at −20° C. in 100% EtOH. Whole-mount immunostaining was done by standard methods (Bitzur, Kam et al. 1994). Further, compound 1 can protect MPTP-induced dopaminergic neuron loss in zebrafish in a dose-dependent manner with Emax at the concentration of 5 μM as shown in FIG. 3B in which the results were expressed quantitatively as percentages of area of TH-positive cells in comparison to untreated control group.

[7] = test system: primary cerebellar granule neurons (CGNs); experiment: Synergistic neuroprotective effect of compound 1 and chrysin on MPP+-induced primary CGNs damage; type: cell-based, Sprague-Dawley rats; conditions: 25 and 50 μM of compound 1, p<0.05
Description: Primary cerebellar granule neurons (CGNs) were prepared from 8 days old Sprague-Dawley rats as described (Zhang et al., 2012). […] The cell viability was estimated similarly as in Example 5.
CGNs were also co-treated with compound 1 and chrysin to explore the pharmacological interaction between two compounds.

Cc1ccc(O)c(C(CCC(=O)O)C(C)C)c1 (racemic) [Compound 5, 4-(2-hydroxy-5-methylphenyl)-5-methylhexanoic acid]
concentration of Emax of neuroprotective effect on MPP+-induced primary SD rat CGNs damage [1]: 50 µM

Cc1ccc(O)c([C@H](CCC(=O)O)C(C)C)c1 [Compound 1, (R)-4-(2-hydroxy-5-methylphenyl)-5-methylhexanoic acid]
concentration of maximum efficacy (Emax) of neuroprotective effect on 6-OHDA-induced PC12 cell damage ([2]; 1 mM 6-OHDA for 2 hours): 50 µM | cytotoxicity on PC12 cells ([2]; all tested concentrations (6 μM to 50 μM), 12 hours): did not exhibit any cytotoxicity | effect on 6-OHDA cytotoxicity to PC12 cells ([2]; pretreated 6 μM to 50 μM for 12 hours, then 1 mM 6-OHDA for 2 hours): could alleviate the cytotoxic effect in a dose-dependent manner | effect on MPTP-induced reduction of total distance traveled [3]: attenuated MPTP-induced reduction of total distance traveled of the larvae in a dose dependent manner | effect on movement abnormalities (pole test, foot printing duration and stride length, rotarod) [4]: largely corrected the movement abnormalities in a dose-dependent manner | effect on MPTP-induced TH-positive cell body loss in SNpc ([5]; compound 1 5, 10 and 20 mg/kg i.g., pre- and post-treatment, 7 days): significantly reduced the MPTP-induced TH-positive cell body loss in a dose-dependent manner | concentration of Emax of neuroprotective effect on MPP+-induced primary SD rat CGNs damage [1]: 50 µM | effect on MPTP-induced DA neuron injury [6]: attenuated MPTP-induced DA neuron injury in a dose-dependent manner | concentration of Emax of protection against MPTP-induced dopaminergic neuron loss in zebrafish ([6]; area of TH-positive cells): 5 µM | cell viability vs MPP+ alone [7]: significantly enhanced

CC(C)[C@H](CCC(=O)O)C1=CC(C)(O)CCC1=O (stereo partly drawn) [Compound 2, (4S)-4-(3-hydroxy-3-methyl-6-oxocyclohex-1-enyl)-5-methylhexanoic acid]
concentration of Emax of neuroprotective effect on MPP+-induced primary SD rat CGNs damage [1]: 50 µM

CC(C)[C@@H](CCC(=O)O)C1=CC(C)(O)CCC1=O (stereo partly drawn) [Compound 3, (4R)-4-(3-hydroxy-3-methyl-6-oxocyclohex-1-enyl)-5-methylhexanoic acid]
concentration of Emax of neuroprotective effect on MPP+-induced primary SD rat CGNs damage [1]: 25 µM

Cc1ccc(O)c([C@@H](CCC(=O)O)C(C)C)c1 [Compound 4, (S)-4-(2-hydroxy-5-methylphenyl)-5-methylhexanoic acid]
concentration of Emax of neuroprotective effect on MPP+-induced primary SD rat CGNs damage [1]: 12 µM

O=c1cc(-c2ccccc2)oc2cc(O)c(O)c(O)c12 [baicalein, reference compound]
protection of PC12 cells against 6-OHDA-induced neuronal damage ([2]; positive control at 100 μM): obviously protected

C#CCN[C@@H]1CCc2ccccc21 [rasagiline, reference compound]
effect on MPTP-induced TH-positive cell body loss in SNpc ([5]; rasagiline 1 mg/kg i.g., same schedule): prevented against the MPTP-induced TH-positive cell body loss
